The values that follow come from ChEMBL document CHEMBL4382259, “Synthesis of novel guttiferone E and xanthochymol derivatives with cytotoxicities by inducing cell apoptosis and arresting the cell cycle phase” (Eur J Med Chem, 2019).

Common to all, as to type: functional, cell-based
For one assay, the system named is HEL. The assay is described as follows: Antiproliferative activity against HEL cells after 72 hrs by MTT assay. The following applies: Homo sapiens. Background: Tetrazolium dyes change colour on reduction, which living cells bring about.
The next assay concerns K562. The assay is described as follows: Antiproliferative activity against human K562 cells after 72 hrs by MTT assay. Conditions: K562, 72 h.
Another assay relates to HeLa. The assay is described as follows: Antiproliferative activity against human HeLa cells after 72 hrs by MTT assay.
A further assay relates to MCF7. The assay can be described thus: Antiproliferative activity against human MCF7 cells after 72 hrs by MTT assay. The following applies: MCF7, 72 h.
The subject of another assay is A549. The assay can be described thus: Antiproliferative activity against human A549 cells after 72 hrs by MTT assay. Conditions: A549, 72 h.

Structures are written as SMILES.

Usually IC50 stands for the point on the concentration scale where inhibition reaches its midpoint. As to `CC(C)=CC[C@H]1C[C@@]23C[C@@H](CC=C(C)C)C(C)(C)[C@@](CC=C(C)C)(C(=O)C(C(=O)c4ccc(O)c(OC(=O)c5ccccc5)c4)=C2OC1(C)C)C3=O`, the half-inhibitory concentration (IC50) is 9.51 µM in the assay with HEL; 13.8 µM in the assay on K562; 6.17 µM in the assay on HeLa; 9.99 µM with MCF7; 9.33 µM in the assay with A549.

In the case of `C=CC(=O)Oc1cc(C(=O)C2=C3OC(C)(C)[C@@H](CC=C(C)C)C[C@@]34C[C@@H](CC=C(C)C)C(C)(C)[C@@](CC=C(C)C)(C2=O)C4=O)ccc1O`, the half-maximal inhibitory concentration (IC50) in the assay with HEL was 4.66 µM; in the assay with K562, 10.7 µM; in the assay on HeLa, 19.4 µM; with MCF7, greater than 20 µM; with A549, greater than 20 µM.

For the molecule `COc1cccc2c1C(=O)c1c(O)c3c(c(O)c1C2=O)C[C@@](O)(C(=O)CO)C[C@@H]3O[C@H]1C[C@H](N)[C@H](O)[C@H](C)O1` [DOXORUBICIN], the IC50 in the assay with HEL is 0.42 µM; with K562, 0.65 µM; in the assay on HeLa it was 1.69 µM; in the assay on MCF7, 1.74 µM; in the assay with A549, 3.16 µM.

`COc1ccc(C(=O)Oc2ccc(C(=O)C3=C4OC(C)(C)[C@@H](CC=C(C)C)C[C@@]45C[C@@H](CC=C(C)C)C(C)(C)[C@H]4CCC(C)(C)O[C@]45OC3=O)cc2OC(=O)c2ccc(OC)cc2)cc1`: the 50% inhibitory concentration (IC50) in the assay on HEL, in the assay with K562, in the assay with HeLa, in the assay on MCF7 and in the assay with A549 was greater than 20 µM in each case.

On to `C=C(C)[C@@H](CC=C(C)C)C[C@@]12C[C@@H](CC=C(C)C)C(C)(C)[C@@](CC=C(C)C)(C(=O)c3c1oc1cc(O)c(O)cc1c3=O)C2=O`, for which the IC50 with HEL is 4.5 µM; in the assay with K562 it was 10.4 µM; in the assay with HeLa, greater than 20 µM; with MCF7 it was greater than 20 µM; in the assay with A549, greater than 20 µM.

On to `CC(C)=CC[C@H]1C[C@@]23C[C@@H](CC=C(C)C)C(C)(C)[C@@](CC=C(C)C)(C(=O)C(C(=O)c4ccc(OC(=O)c5cccs5)c(OC(=O)c5cccs5)c4)=C2OC1(C)C)C3=O`, for which the concentration for half-maximal inhibition (IC50) in the assay on HEL was greater than 20 µM; in the assay on K562, greater than 20 µM; in the assay on HeLa, 8.8 µM; in the assay on MCF7 it was 16.5 µM; in the assay with A549 it was 20 µM.

On to `CCCCCC(=O)Oc1cc(C(=O)C2=C3OC(C)(C)[C@@H](CC=C(C)C)C[C@@]34C[C@@H](CC=C(C)C)C(C)(C)[C@H]3CCC(C)(C)O[C@]34OC2=O)ccc1O`, for which the IC50 was 9.53 µM in the assay on HEL; 13.5 µM in the assay on K562; greater than 20 µM in the assay with HeLa; 15.5 µM in the assay on MCF7; 19.5 µM in the assay with A549.

For `CC(C)=CC[C@H]1C[C@]23C[C@@H](CC=C(C)C)C(C)(C)[C@H]4CCC(C)(C)O[C@]42OC(=O)C(C(=O)c2ccc(OC(=O)c4ccc(F)cc4)c(OC(=O)c4ccc(F)cc4)c2)=C3OC1(C)C`, the half-inhibitory concentration (IC50) was greater than 20 µM in the assay with HEL; greater than 20 µM in the assay on K562; 11.9 µM in the assay with HeLa; 16.8 µM in the assay with MCF7; 11.7 µM in the assay with A549.

Turning to `C=C(C)[C@@H](CC=C(C)C)C[C@]12C[C@@H](CC=C(C)C)C(C)(C)[C@](CC=C(C)C)(C1=O)c1oc3cc(O)c(O)cc3c(=O)c1C2=O`, the IC50 in the assay with HEL, with K562, in the assay with HeLa, with MCF7 and in the assay with A549 was greater than 20 µM throughout.

In the case of `CC(C)=CC[C@H]1C[C@@]23C[C@@H](CC=C(C)C)C(C)(C)[C@@](CC=C(C)C)(C(=O)C(C(=O)c4ccc(O)c(OS(=O)(=O)c5ccc(C)cc5)c4)=C2OC1(C)C)C3=O`, the half-maximal inhibitory concentration (IC50) in the assay on HEL was 4.66 µM; in the assay with K562, greater than 20 µM; in the assay on HeLa it was 18.4 µM; in the assay on MCF7, 15.8 µM; in the assay on A549, greater than 20 µM.

Turning to `CC(C)=CC[C@H]1C[C@@]23C[C@@H](CC=C(C)C)C(C)(C)[C@@](CC=C(C)C)(C(=O)C(C(=O)c4ccc(OCCCCCN5CCOCC5)c(OCCCCCN5CCOCC5)c4)=C2OC1(C)C)C3=O`, the IC50 in the assay on HEL is greater than 20 µM; with K562 it was greater than 20 µM; with HeLa it was 5 µM; in the assay with MCF7 it was greater than 20 µM; in the assay with A549 it was greater than 20 µM.

For `C=CC(=O)Oc1ccc(C(=O)C2=C3OC(C)(C)[C@@H](CC=C(C)C)C[C@@]34C[C@@H](CC=C(C)C)C(C)(C)[C@@](CC=C(C)C)(C2=O)C4=O)cc1OC(=O)C=C`, the half-maximal inhibitory concentration (IC50) was greater than 20 µM with HEL; greater than 20 µM in the assay on K562; 10.1 µM in the assay on HeLa; 4 µM in the assay on MCF7; 13.7 µM in the assay with A549.

With `CC(C)=CC[C@H]1C[C@@]23C[C@@H](CC=C(C)C)C(C)(C)[C@@](CC=C(C)C)(C(=O)C(C(=O)c4ccc(O)c(OC(=O)CCCCCBr)c4)=C2OC1(C)C)C3=O`, the half-maximal inhibitory concentration (IC50) in the assay with HEL was 9.62 µM; in the assay with K562 it was 14.5 µM; in the assay with HeLa, greater than 20 µM; in the assay on MCF7 it was greater than 20 µM; with A549 it was greater than 20 µM.

With `CC(C)=CC[C@H]1C[C@@]23C[C@@H](CC=C(C)C)C(C)(C)[C@@](CC=C(C)C)(C(=O)C(C(=O)c4ccc(OC(=O)c5ccccc5)c(OC(=O)c5ccccc5)c4)=C2OC1(C)C)C3=O`, the IC50 with HEL, in the assay on K562, with HeLa, in the assay on MCF7 and in the assay with A549 was greater than 20 µM each time.

With `CCCCCCCC(=O)Oc1cc(C(=O)C2=C3OC(C)(C)[C@@H](CC=C(C)C)C[C@@]34C[C@@H](CC=C(C)C)C(C)(C)[C@H]3CCC(C)(C)O[C@]34OC2=O)ccc1O`, the IC50 is 18.7 µM in the assay with HEL; 15.3 µM with K562; greater than 20 µM in the assay with HeLa; greater than 20 µM in the assay on MCF7; greater than 20 µM in the assay on A549.

Regarding `CC(C)=CCOc1ccc(C(=O)C2=C3OC(C)(C)[C@@H](CC=C(C)C)C[C@@]34C[C@@H](CC=C(C)C)C(C)(C)[C@@](CC=C(C)C)(C2=O)C4=O)cc1OCC=C(C)C`, the IC50 in the assay with HEL was greater than 20 µM; in the assay on K562, greater than 20 µM; in the assay with HeLa, greater than 20 µM; in the assay on MCF7 it was greater than 20 µM; in the assay with A549, 17.2 µM.

For the molecule `CCN(CC)CCCCCOc1ccc(C(=O)C2=C3OC(C)(C)[C@@H](CC=C(C)C)C[C@@]34C[C@@H](CC=C(C)C)C(C)(C)[C@@](CC=C(C)C)(C2=O)C4=O)cc1OCCCCCN(CC)CC`, the IC50 is greater than 20 µM with HEL; greater than 20 µM in the assay with K562; 11.3 µM in the assay with HeLa; 7.56 µM in the assay on MCF7; 17.2 µM with A549.

With `CC(C)=CC[C@H]1C[C@@]23C[C@@H](CC=C(C)C)C(C)(C)[C@@](CC=C(C)C)(C(=O)C(C(=O)c4ccc(OC(=O)CCCCCBr)c(OC(=O)CCCCCBr)c4)=C2OC1(C)C)C3=O`, the concentration for half-maximal inhibition (IC50) in the assay on HEL, with K562, in the assay with HeLa, with MCF7 and with A549 was greater than 20 µM throughout.

In the case of `CCC(=O)Oc1cc(C(=O)C2=C3OC(C)(C)[C@@H](CC=C(C)C)C[C@@]34C[C@@H](CC=C(C)C)C(C)(C)[C@H]3CCC(C)(C)O[C@]34OC2=O)ccc1O`, the IC50 in the assay on HEL was 9.71 µM; in the assay with K562, 12.1 µM; in the assay on HeLa it was greater than 20 µM; with MCF7, greater than 20 µM.
